The values below are quoted from earlier work in patent US20070292421A1, “Method for treating preeclampsia” (priority 2005, published 2007).

One series has as its system trophoblast apoptosis. The conditions noted are these: in vitro.
The next series concerns severe sepsis. The conditions noted are these: OPTIMIST trial.
The next series deals with human C5a receptor. Particulars: numerous models of human disease.
Series [1] relates to 5-HT2C, 5-HT2B, 5-HT1D, alpha-adrenergic, and dopamine receptors. Particulars: relative to 5-HT2A.
In series [2] the target is serotonin 5-HT2A receptor (Homo sapiens, UniProt P28223).
serotonin 5-HT2A receptor, sequence (P28223 whole entry): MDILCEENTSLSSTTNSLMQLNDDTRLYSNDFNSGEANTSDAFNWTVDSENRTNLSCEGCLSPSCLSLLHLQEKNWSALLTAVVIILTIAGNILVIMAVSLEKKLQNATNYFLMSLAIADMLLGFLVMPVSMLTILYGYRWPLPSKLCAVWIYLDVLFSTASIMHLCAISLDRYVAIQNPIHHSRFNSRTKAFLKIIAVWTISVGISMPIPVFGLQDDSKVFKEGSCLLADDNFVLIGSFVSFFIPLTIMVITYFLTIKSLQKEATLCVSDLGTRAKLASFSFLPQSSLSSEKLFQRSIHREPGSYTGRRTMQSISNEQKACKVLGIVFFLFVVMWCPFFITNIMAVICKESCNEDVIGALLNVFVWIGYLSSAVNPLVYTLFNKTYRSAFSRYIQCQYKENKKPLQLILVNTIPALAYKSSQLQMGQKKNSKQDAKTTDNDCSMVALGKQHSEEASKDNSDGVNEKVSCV
The test system of series [3] is antineutrophil cytoplasmic antibody (ANCA) positive patients.

With heparin, in the series with trophoblast apoptosis, the “effect on trophoblast apoptosis” value is on record as “regulate trophoblast apoptosis”. In the case of “tifacogin: recombinant TFPI (Chiron Corp/Pharmacia Corp)”, the “treatment of severe sepsis” value in the series on severe sepsis is on record as “failure”. Turning to “Ac-Phe [3D53, Ac-Phe [Orn-Pro-D-Cha-Trp-Arg]]”, the anti-inflammatory activity entry in the series on human C5a receptor was “excellent anti-inflammatory activity”. With `O=C(c1ccc(F)cc1)C1CCN(CCn2c(=O)[nH]c3ccccc3c2=O)CC1` [Ketanserin], the binding result in series [1] is given as “binds less potently”. In addition, the affinity entry in series [2] is given as “high affinity”. For the compound “Rituximab: monoclonal antibody that binds the B cell surface protein CD20 (Roche Pharmaceuticals)”, the clinical improvement result in series [3] (n=11 patients combined, added to immunosuppressive drug regimen) is on record as “clinical improvement in all eleven cases”. In series [3] (of eleven cases), the “cases with complete clinical improvement” value is given as “eight”.

With `CC(=O)Oc1ccccc1C(=O)O` [aspirin], the “effect on trophoblast apoptosis” value in the series with trophoblast apoptosis was “regulate trophoblast apoptosis”.
